Patent EP1196433B1, “CYCLIC PEPTIDE DERIVATIVES AS INHIBITORS OF INTEGRIN ALPHA v BETA 6” (Merck Patent GmbH, priority 1999, dated 2001)
Non-standard residues stand in square brackets, D forms with d. Residues, ends and D or L forms follow the SMILES beside them.

Molecular target: T1, αvβ6 Rezeptor (Homo sapiens, UniProt P06756+P18564)
T1 construct: Die Immobilisierung von löslichem αvβ6 Rezeptor auf Microtiterplatten
Assay: αvβ6 / fibronectin receptor binding test (competition of peptide with biotinylated fibronectin on immobilised integrin, ELISA read-out)
Settings: for Q-Wert = IC50 Testpeptid / IC50 EMD 271293: standard Ac-RTDLDSLR-NH2, Q values of repeated experiments averaged; for -log Q / Q (IC50[Substanz] / IC50[EMD 271293]): peptides Cyclo-(Arg-Gly-Asp-Leu-D-Asp-Ala-Leu-Arg-R^1), labelled by R^1; for -log Q: Q = IC50[Substanz] / IC50[EMD 271293]; for Q (IC50[Substanz] / IC50[EMD 271293]): ratio to comparison compound EMD 271293
Text: αvβ6 / Fibronektin Rezeptorbindungstest:
Die hergestellten erfindungsgemäßen Peptide wurden in Lösung zusammen mit kompetetiv wirkenden Fibronektin an den immobiliserten αvβ6 Rezeptor gebunden und der Q-Wert als Maß für die Selektivität der Bindung des zu testenden Peptids an αvβ6 ermittelt. Der Q-Wert berechnet sich dabei aus dem Quotienten der IC50-Werte von Testpeptid und einem Standard. Als Standard diente das lineare Ac-RTDLDSLR-NH2 (Code EMD 271293) (Lit./Patent vgl Pytela et al. Science 231, 1559, (1986)). Der Bindungstest wurde im einzelnen wie folgt durchgeführt: • Die Immobilisierung von löslichem αvβ6 Rezeptor auf Microtiterplatten erfolgte durch Verdünnung der Proteinlösung in TBS++ und anschliessender Inkubation über Nacht bei 4°C (100 µl/Vertiefung). Unspezifische • Bindungsstellen wurden durch Inkubation (2 h, 37°C) mit 3% (w/v) BSA in TBS++ (200 µl/Vertiefung) blockiert. Überschüssiges BSA wurde durch dreimaliges Waschen mit TBSA++ entfernt. Peptide wurden seriell (1:10) in TBSA++ verdünnt und zusammen mit biotinyliertem Fibronektin (2 µg/ ml) mit dem immobilisierten Integrin inkubiert (50 µl Peptid + 50 µl Ligand pro Vertiefung; 2 h; 37°C). Nicht gebundenes Fibronektin und Peptide wurden durch dreimaliges Waschen mit TBSA++ entfernt. Die Detektion des gebundenen Fibronektin erfolgte durch Inkubation (1 h; 37 °C) mit einem alkalische-Phosphatase-gekoppelten anti-Biotin-Antikörper (Biorad) (1:20000 in TBSA++; 100 µl/Vertiefung). Nach dreimaligem Waschen mit TBSA++ erfolgte die kolorimetrische Detektion durch Inkubation (10-15 min; 25°C, im Dunkeln) mit Substratlösung (5 mg Nitrophenylphosphat, 1 ml Ethanolamin, 4 ml H2O; 100 µl/Vertiefung). Die Enzymreaktion wurde durch Zugabe von 0,4 M NaOH (100 µl/Vertiefung) gestoppt. Die Farbintensität wurde bei 405 nm im ELISA-Meßgerät bestimmt und gegen den Nullwert abgeglichen. Als Nullwert dienten Vertiefungen, die nicht mit Rezeptor beschichtet waren. Als Standard wurde Ac-RTDLDSLR-NH2 eingesetzt. Die IC50-Werte für die getesteten Peptide wurden aus einer Graphik abgelesen und daraus zusammen mit dem IC50-Wert des Standardpeptids der Q-Wert des erfindungsgemäßen Peptids ermittelt. Q-Wert = IC50 Testpeptid/IC50 Standard [formula] Q-Werte aus Versuchswiederholungen wurden gemittelt.

[1] = biotinylated fibronectin 2 µg/ml

T1 sequence (P06756 31-992 limits assumed): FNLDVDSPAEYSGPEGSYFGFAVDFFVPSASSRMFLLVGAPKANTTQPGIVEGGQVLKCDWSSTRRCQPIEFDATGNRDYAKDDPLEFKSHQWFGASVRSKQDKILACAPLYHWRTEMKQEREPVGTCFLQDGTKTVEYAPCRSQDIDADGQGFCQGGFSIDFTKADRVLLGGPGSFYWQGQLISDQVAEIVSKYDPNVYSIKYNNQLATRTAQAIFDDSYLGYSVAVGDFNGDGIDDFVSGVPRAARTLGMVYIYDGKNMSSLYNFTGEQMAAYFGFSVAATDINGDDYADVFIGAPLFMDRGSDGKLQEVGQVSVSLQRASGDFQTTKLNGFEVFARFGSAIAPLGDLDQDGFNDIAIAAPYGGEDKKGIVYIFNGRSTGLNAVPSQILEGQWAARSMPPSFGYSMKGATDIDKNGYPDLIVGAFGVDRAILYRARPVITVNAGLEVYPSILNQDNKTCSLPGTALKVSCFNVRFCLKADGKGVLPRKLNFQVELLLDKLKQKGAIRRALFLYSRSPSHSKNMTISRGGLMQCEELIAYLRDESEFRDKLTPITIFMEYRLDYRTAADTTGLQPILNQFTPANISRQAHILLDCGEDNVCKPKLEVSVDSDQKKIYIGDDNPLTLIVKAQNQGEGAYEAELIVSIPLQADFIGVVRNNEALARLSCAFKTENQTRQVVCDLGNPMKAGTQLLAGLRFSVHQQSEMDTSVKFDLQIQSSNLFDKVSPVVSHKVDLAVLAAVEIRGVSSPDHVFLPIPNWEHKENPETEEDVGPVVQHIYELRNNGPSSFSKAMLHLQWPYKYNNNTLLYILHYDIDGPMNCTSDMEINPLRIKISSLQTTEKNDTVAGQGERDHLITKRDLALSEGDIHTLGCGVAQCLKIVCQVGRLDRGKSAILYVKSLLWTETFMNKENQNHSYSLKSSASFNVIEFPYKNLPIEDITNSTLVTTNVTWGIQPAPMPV
T1 sequence (P18564 22-709 limits assumed): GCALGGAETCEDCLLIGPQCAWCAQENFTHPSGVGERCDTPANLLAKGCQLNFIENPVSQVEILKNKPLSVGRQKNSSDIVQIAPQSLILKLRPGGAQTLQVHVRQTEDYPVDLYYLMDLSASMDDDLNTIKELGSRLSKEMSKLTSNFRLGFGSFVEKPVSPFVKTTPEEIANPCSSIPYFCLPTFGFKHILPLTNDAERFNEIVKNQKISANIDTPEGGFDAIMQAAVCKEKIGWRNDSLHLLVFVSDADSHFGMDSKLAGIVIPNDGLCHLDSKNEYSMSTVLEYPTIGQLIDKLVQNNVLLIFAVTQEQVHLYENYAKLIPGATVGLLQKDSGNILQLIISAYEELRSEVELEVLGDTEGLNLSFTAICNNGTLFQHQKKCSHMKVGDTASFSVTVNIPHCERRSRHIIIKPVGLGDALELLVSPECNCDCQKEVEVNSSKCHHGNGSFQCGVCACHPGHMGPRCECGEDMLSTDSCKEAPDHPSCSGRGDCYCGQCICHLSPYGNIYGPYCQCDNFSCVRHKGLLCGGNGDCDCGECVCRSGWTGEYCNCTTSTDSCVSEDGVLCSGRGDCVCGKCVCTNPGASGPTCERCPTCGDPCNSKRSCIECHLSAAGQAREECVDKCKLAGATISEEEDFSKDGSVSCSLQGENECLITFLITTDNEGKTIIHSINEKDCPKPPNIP

Row | Compound | Q-Wert = IC50 Testpeptid / IC50 EMD 271293 [1] | -log Q | Q (IC50[Substanz] / IC50[EMD 271293]) | IC50 (IC50 of the standard peptide, printed in brackets beside its Q value, biotinylated fibronectin 2 µg/ml) [nM]
1 | CC(C)C[C@@H]1NC(=O)[C@H](C)NC(=O)[C@@H](CC(=O)O)NC(=O)[C@H](CC(C)C)NC(=O)[C@H](CC(=O)O)NC(=O)CNC(=O)[C@H](CCCNC(=N)N)NC(=O)CNC(=O)[C@H](CCCNC(=N)N)NC1=O [EMD 271591, cyclo-(RGDLdALRG)] (cyclo(RGDL[dD]ALRG)) |  | -0,322 | 2,1 | 
2 | CC(C)C[C@@H]1NC(=O)[C@H](C)NC(=O)[C@@H](CC(=O)O)NC(=O)[C@H](CC(C)C)NC(=O)[C@H](CC(=O)O)NC(=O)CNC(=O)[C@H](CCCNC(=N)N)NC(=O)CNC(=O)CNC(=O)CNC(=O)CNC(=O)[C@H](CCCNC(=N)N)NC1=O [EMD 272961, cyclo-(RGDLdALRGGGG)] (cyclo(RGDL[dD]ALRGGGG)) |  | 1,481 | 0,033 | 
3 | cyclo-(RGDLdALR-Abu-Abu) [EMD 272914] |  | 1,523 | 0,03 | 
4 | CC(C)C[C@@H]1NC(=O)[C@H](C)NC(=O)[C@@H](CC(=O)O)NC(=O)[C@H](CC(C)C)NC(=O)[C@H](CC(=O)O)NC(=O)CNC(=O)[C@H](CCCNC(=N)N)NC(=O)CNC(=O)CNC(=O)CNC(=O)[C@H](CCCNC(=N)N)NC1=O [EMD 271593] (cyclo(RGDL[dD]ALRGGG)) |  | 1,523 | 0,03 | 
5 | cyclo-(RGDLdALR-Aha-Aha) [EMD 272958] |  | 1,444 | 0,036 | 
6 | CC(C)C[C@@H]1NC(=O)[C@H](C)NC(=O)[C@@H](CC(=O)O)NC(=O)[C@H](CC(C)C)NC(=O)[C@H](CC(=O)O)NC(=O)CNC(=O)[C@H](CCCNC(=N)N)NC(=O)CNC(=O)CNC(=O)CNC(=O)CNC(=O)CNC(=O)[C@H](CCCNC(=N)N)NC1=O [EMD 272962, cyclo-(RGDLdALRGGGGG)] (cyclo(RGDL[dD]ALRGGGGG)) |  | 1,337 | 0,046 | 
7 | cyclo-(RGDLdALR-Aha) [EMD 272959] |  | 1,444 | 0,036 | 
8 | CC(C)C[C@@H]1NC(=O)[C@H](C)NC(=O)[C@@H](CC(=O)O)NC(=O)[C@H](CC(C)C)NC(=O)[C@H](CC(=O)O)NC(=O)CNC(=O)[C@H](CCCNC(=N)N)NC(=O)CNC(=O)CNC(=O)CNC(=O)CNC(=O)CNC(=O)CNC(=O)[C@H](CCCNC(=N)N)NC1=O [EMD 271594, cyclo-(RGDLdALRGGGGGG)] (cyclo(RGDL[dD]ALRGGGGGG)) |  | 1,301 | 0,05 | 
9 | CC(C)C[C@@H]1NC(=O)[C@H](C)NC(=O)[C@@H](CC(=O)O)NC(=O)[C@H](CC(C)C)NC(=O)[C@H](CC(=O)O)NC(=O)CNC(=O)[C@H](CCCNC(=N)N)NC(=O)CNC(=O)CNC(=O)[C@H](CCCNC(=N)N)NC1=O [EMD 271592, cyclo-(RGDLdALRGG)] (cyclo(RGDL[dD]ALRGG)) |  | 1,301 | 0,05 | 

Now from value to compound:

Row | Q-Wert = IC50 Testpeptid / IC50 EMD 271293 [1] | -log Q | Q (IC50[Substanz] / IC50[EMD 271293]) | IC50 (IC50 of the standard peptide, printed in brackets beside its Q value, biotinylated fibronectin 2 µg/ml) [nM] | Compound
10 | 0,046 |  |  |  | CC(C)C[C@@H]1NC(=O)[C@H](C)NC(=O)[C@@H](CC(=O)O)NC(=O)[C@H](CC(C)C)NC(=O)[C@H](CC(=O)O)NC(=O)CNC(=O)[C@H](CCCNC(=N)N)NC(=O)CNC(=O)CNC(=O)CNC(=O)CNC(=O)CNC(=O)[C@H](CCCNC(=N)N)NC1=O [compound 272962] (cyclo(RGDL[dD]ALRGGGGG))
11 | 2,1 |  |  |  | CC(C)C[C@@H]1NC(=O)[C@H](C)NC(=O)[C@@H](CC(=O)O)NC(=O)[C@H](CC(C)C)NC(=O)[C@H](CC(=O)O)NC(=O)CNC(=O)[C@H](CCCNC(=N)N)NC(=O)CNC(=O)[C@H](CCCNC(=N)N)NC1=O [compound 271591] (cyclo(RGDL[dD]ALRG))
12 | 0,03 |  |  |  | CC(C)C[C@@H]1NC(=O)[C@H](C)NC(=O)[C@@H](CC(=O)O)NC(=O)[C@H](CC(C)C)NC(=O)[C@H](CC(=O)O)NC(=O)CNC(=O)[C@H](CCCNC(=N)N)NC(=O)CNC(=O)CNC(=O)CNC(=O)[C@H](CCCNC(=N)N)NC1=O [compound 271593] (cyclo(RGDL[dD]ALRGGG))
13 | 0,033 |  |  |  | CC(C)C[C@@H]1NC(=O)[C@H](C)NC(=O)[C@@H](CC(=O)O)NC(=O)[C@H](CC(C)C)NC(=O)[C@H](CC(=O)O)NC(=O)CNC(=O)[C@H](CCCNC(=N)N)NC(=O)CNC(=O)CNC(=O)CNC(=O)CNC(=O)[C@H](CCCNC(=N)N)NC1=O [compound 272961] (cyclo(RGDL[dD]ALRGGGG))
14 | 1,00 |  |  | 75 | CC(=O)N[C@@H](CCCNC(=N)N)C(=O)N[C@H](C(=O)N[C@@H](CC(=O)O)C(=O)N[C@@H](CC(C)C)C(=O)N[C@@H](CC(=O)O)C(=O)N[C@@H](CO)C(=O)N[C@@H](CC(C)C)C(=O)N[C@@H](CCCNC(=N)N)C(N)=O)[C@@H](C)O [compound 271293] (Ac-RTDLDSLR-NH2)
15 | 0,05 |  |  |  | CC(C)C[C@@H]1NC(=O)[C@H](C)NC(=O)[C@@H](CC(=O)O)NC(=O)[C@H](CC(C)C)NC(=O)[C@H](CC(=O)O)NC(=O)CNC(=O)[C@H](CCCNC(=N)N)NC(=O)CNC(=O)CNC(=O)CNC(=O)CNC(=O)CNC(=O)CNC(=O)[C@H](CCCNC(=N)N)NC1=O [compound 271594] (cyclo(RGDL[dD]ALRGGGGGG))
16 |  | 1,553 | 0,028 |  | cyclo-(RGDLdALR-Abu) [EMD 273035]
17 | 0,05 |  |  |  | CC(C)C[C@@H]1NC(=O)[C@H](C)NC(=O)[C@@H](CC(=O)O)NC(=O)[C@H](CC(C)C)NC(=O)[C@H](CC(=O)O)NC(=O)CNC(=O)[C@H](CCCNC(=N)N)NC(=O)CNC(=O)CNC(=O)[C@H](CCCNC(=N)N)NC1=O [compound 271592] (cyclo(RGDL[dD]ALRGG))
